Measured values reported in US4650790A, “Drug combinations having synergistic effect” (Patentbureau Danubia, priority 1984, dated 1987).
Where a name gives a salt, the structure may show the parent alone. Read-outs that look alike come from different tables or passages of the source.

Key:
E. coli (Swine) = test: Microbiological assay, MIC and MBC, E. coli (Swine); type: cell-based; settings: combinations 1:1 by weight
[1] = tested on: Pseudomonas strains of mastitic origin; settings: cited from earlier work
Salmonella typhi-murium = test: Microbiological assay, MIC and MBC, Salmonella typhi-murium; type: cell-based; settings: combinations 1:1 by weight
E. coli (Calf) = test: Microbiological assay, MIC and MBC, E. coli (Calf); settings: combinations 1:1 by weight
Pasteurella multocida = test: Microbiological assay, MIC and MBC, Pasteurella multocida; settings: combinations 1:1 by weight
[2] = in vivo; cited from earlier work
Staphylococcus aureus = test: Microbiological assay, minimal inhibiting (MIC) and minimal bactericide (MBC) concentrations, Staphylococcus aureus; settings: combinations 1:1 by weight
Mycoplasma hyopneumoniae = settings: orally applied; enzootic pneumonia; Taylor, IPVS Congress 1982; cited from earlier work
[3] = tested on: some Gram positive bacteria, Mycoplasma and the most important Treponema; settings: cited from earlier work
Treponema hyodysenteriae = settings: orally applied; swine dysentery; British patent specification No. 2,072,012; cited from earlier work
[4] = Escherichia coli, read-out: MBC
[5] = Escherichia coli, read-out: MIC

Work on NC[C@H]1O[C@H](O[C@H]2[C@H](O)[C@@H](O[C@H]3O[C@H](CO)[C@@H](O)[C@H](N)[C@H]3O)[C@H](N)C[C@@H]2N)[C@H](N)C[C@@H]1O [Tobramycin] yielded an MBC (E. coli (Swine); [4]) of 5 µg/mL and an MIC (E. coli (Swine); [5]) of 1 µg/mL.

For CN[C@@H]1[C@@H](O[C@H]2O[C@H](CO)[C@@H](N)[C@H](O)[C@H]2O)OC2C[C@@H](N)[C@@H](O[C@H]3[C@H](O)[C@@H](O)[C@H](N)C[C@@H]3N)OC2[C@@H]1O (stereo partly shown) [Apramycin], the “effect against Pseudomonas strains of mastitic origin” value [1] is listed as “particularly strong effect”, the MBC (E. coli (Swine); [4]) is listed as 25 µg/mL and the MIC (E. coli (Swine); [5]) is listed as 25 µg/mL.

With NC[C@H]1O[C@H](O[C@H]2[C@H](O)[C@@H](O[C@H]3O[C@H](CO)[C@@H](O)[C@H](N)[C@H]3O)[C@H](N)C[C@@H]2N)[C@H](O)[C@@H](O)[C@@H]1O [Kanamycin] the MBC (E. coli (Swine); [4]) was 25 µg/mL, the MIC (E. coli (Swine); [5]) was 10 µg/mL and the MBC (Salmonella typhi-murium; Salmonella enterica, read-out: MBC) was 50 µg/mL. It also gave an MIC (Salmonella typhi-murium; Salmonella enterica, read-out: MIC) of 25 µg/mL.

In the case of [H]/N=C(/N)N[C@H]1[C@H](O)[C@@H](O)[C@H](O[C@@H]2O[C@@H](C)[C@](O)(C=O)[C@H]2O[C@@H]2O[C@@H](CO)[C@H](O)[C@@H](O)[C@@H]2NC)[C@@H](N/C(N)=N\[H])[C@@H]1O [Streptomycin], the MBC (E. coli (Swine); [4]) is reported as > 200 µg/mL and the MIC (E. coli (Swine); [5]) is reported as 100 µg/mL.

In the case of NC[C@@H]1O[C@H](O[C@H]2[C@@H](O)[C@H](O[C@@H]3[C@@H](O)[C@H](N)C[C@H](N)[C@H]3O[C@H]3O[C@H](CN)[C@@H](O)[C@H](O)[C@H]3N)O[C@@H]2CO)[C@H](N)[C@@H](O)[C@@H]1O [Neomycin], the MBC (E. coli (Calf)) is reported as > 200 µg/mL, the MIC (E. coli (Calf)) is reported as > 200 µg/mL and the MBC (E. coli (Swine)) is reported as 10 µg/mL. For the same molecule, the MIC (E. coli (Swine)) was 5 µg/mL, the MBC (Salmonella typhi-murium) was 25 µg/mL and the MIC (Salmonella typhi-murium) was 10 µg/mL. The MBC (Pasteurella multocida) was 5 µg/mL, the MIC (Pasteurella multocida) was 1 µg/mL and the nephrotoxic properties [2] was “may cause azotaemia and oliguria”. The MBC (Staphylococcus aureus) was 25 µg/mL and the MIC (Staphylococcus aureus) was 10 µg/mL.

For C=C[C@]1(C)C[C@@H](OC(=O)CSCCN(CC)CC)[C@]2(C)[C@H](C)CC[C@]3(CCC(=O)[C@H]32)[C@@H](C)[C@@H]1O [Tiamulin, 14-desoxy-14-[(2-diethyl-amino-ethyl)-mercapto-acetoxy]-mutilin hydrogen fumarate], the MBC (E. coli (Swine); [4]) is listed as 100 µg/mL, the MIC (E. coli (Swine); [5]) is listed as 50 µg/mL and the “effectiveness against Mycoplasma hyopneumoniae” value (Mycoplasma hyopneumoniae) is listed as “extremely effective”. For the same molecule, the “effectiveness against some Gram positive bacteria, Mycoplasma and Treponema” value [3] was “effective against some Gram positive bacteria, Mycoplasma and the most important Treponema” and the “effectiveness against Treponema hyodysenteriae” value (Treponema hyodysenteriae) was “extremely effective”.

Work on Gentamycin yielded an MBC (E. coli (Calf)) of 5 µg/mL, an MIC (E. coli (Calf)) of 5 µg/mL and an MBC (E. coli (Swine)) of 5 µg/mL. The MIC (E. coli (Swine)) was 5 µg/mL, the MBC (Salmonella typhi-murium) was 5 µg/mL and the MIC (Salmonella typhi-murium) was 5 µg/mL. The MBC (Pasteurella multocida) was 1 µg/mL, the MIC (Pasteurella multocida) was < 0.5 µg/mL and the MBC (Staphylococcus aureus) was 5 µg/mL. For the same molecule, the MIC (Staphylococcus aureus) was 0.5 µg/mL.
